Laboratory results reported in paper PMC5218480 (PLoS ONE, 2017).

Test system: MV-4-11 cells
Assay: Gene expression microarray analysis (Affymetrix PrimeView) and GSEA
Assay type: cell-based, human
Design: RFU PODN (11730768_x_at) / Fold change /veh PODN (11730768_x_at) / RFU LINC00158 (11744669_a_at) / Fold change /veh LINC00158 (11744669_a_at) / RFU DUSP10 (11751237_a_at) / Fold change /veh DUSP10 (11751237_a_at) / RFU ID3 (11757404_x_at) / Fold change /veh ID3 (11757404_x_at) / RFU PLEKHG5 (11737974_s_at) / Fold change /veh PLEKHG5 (11737974_s_at) / RFU LRRC4B (11730491_at) / Fold change /veh LRRC4B (11730491_at) / RFU GIMAP4 (11747438_a_at) / Fold change /veh GIMAP4 (11747438_a_at) / RFU KRT8 (11758183_x_at) / Fold change /veh KRT8 (11758183_x_at) / RFU CNN1 (11734310_a_at) / Fold change /veh CNN1 (11734310_a_at) / RFU VPS37D (11726825_at) / Fold change /veh VPS37D (11726825_at) / RFU C10orf10 (11716522_x_at) / Fold change /veh C10orf10 (11716522_x_at) / RFU KIR2DL2 /// KIR2DL4 /// KIR2DL5A /// KIR2DL5B /// KIR2DS1 /// KIR2DS2 /// KIR2DS3 /// KIR2DS4 /// KIR3DL3 /// KIR3DL3 /// KIR3DS1 (11738374_at) / Fold change /veh KIR2DL2 /// KIR2DL4 /// KIR2DL5A /// KIR2DL5B /// KIR2DS1 /// KIR2DS2 /// KIR2DS3 /// KIR2DS4 /// KIR3DL3 /// KIR3DL3 /// KIR3DS1 (11738374_at) / RFU C1QL1 (11718748_at) / Fold change /veh C1QL1 (11718748_at) / RFU TMPRSS4 (11747572_a_at) / Fold change /veh TMPRSS4 (11747572_a_at) / RFU HAMP (11756126_x_at) / Fold change /veh HAMP (11756126_x_at) / RFU RNFT2 (11725882_a_at) / Fold change /veh RNFT2 (11725882_a_at) / RFU NR4A2 (11747474_a_at) / Fold change /veh NR4A2 (11747474_a_at) / RFU ABCC12 (11746883_a_at) / Fold change /veh ABCC12 (11746883_a_at) / RFU TMEM136 (11760407_x_at) / Fold change /veh TMEM136 (11760407_x_at) / RFU CLDN22 /// WWC2 (11732394_at) / Fold change /veh CLDN22 /// WWC2 (11732394_at) / RFU HLA-DPB1 (11760878_x_at) / Fold change /veh HLA-DPB1 (11760878_x_at) / RFU SPINT1 (11716480_a_at) / Fold change /veh SPINT1 (11716480_a_at) / RFU GAP43 (11754022_s_at) / Fold change /veh GAP43 (11754022_s_at) / RFU A4GNT (11735810_at) / Fold change /veh A4GNT (11735810_at) / RFU PRB3 (11715151_x_at) / Fold change /veh PRB3 (11715151_x_at) / RFU TUBB4B (11761932_at) / Fold change /veh TUBB4B (11761932_at) / RFU CAPN14 (11732068_a_at) / Fold change /veh CAPN14 (11732068_a_at) / RFU TMCC2 (11721928_a_at) / Fold change /veh TMCC2 (11721928_a_at) / RFU IRGQ (11745062_a_at) / Fold change /veh IRGQ (11745062_a_at) / RFU FAM174B (11720279_a_at) / Fold change /veh FAM174B (11720279_a_at) / RFU TMPRSS4 (11748680_a_at) / Fold change /veh TMPRSS4 (11748680_a_at) / RFU FAM212B (11763350_a_at) / Fold change /veh FAM212B (11763350_a_at) / RFU PLEKHG5 (11743358_a_at) / Fold change /veh PLEKHG5 (11743358_a_at) / RFU ZSCAN30 (11745921_a_at) / Fold change /veh ZSCAN30 (11745921_a_at) / RFU CMKLR1 (11741424_a_at) / Fold change /veh CMKLR1 (11741424_a_at) / RFU LOC101060620 /// MAPK8IP1 (11723275_at) / Fold change /veh LOC101060620 /// MAPK8IP1 (11723275_at) / RFU SPTSSB (11747773_x_at) / Fold change /veh SPTSSB (11747773_x_at) / RFU PRSS12 (11739890_at) / Fold change /veh PRSS12 (11739890_at) / RFU BIN1 (11741810_x_at) / Fold change /veh BIN1 (11741810_x_at) / RFU WNT11 (11732464_a_at) / Fold change /veh WNT11 (11732464_a_at) / RFU C10orf10 (11716521_a_at) / Fold change /veh C10orf10 (11716521_a_at) / RFU C5orf56 (11738089_at) / Fold change /veh C5orf56 (11738089_at) / RFU CYB561 (11721691_x_at) / Fold change /veh CYB561 (11721691_x_at) / RFU ANKRD19P (11752326_a_at) / Fold change /veh ANKRD19P (11752326_a_at) / RFU OR2T12 /// OR2T33 /// OR2T8 (11738714_s_at) / Fold change /veh OR2T12 /// OR2T33 /// OR2T8 (11738714_s_at) / RFU VCAN (11748164_a_at) / Fold change /veh VCAN (11748164_a_at) / RFU JSRP1 (11732532_at) / Fold change /veh JSRP1 (11732532_at) / RFU KRTAP10-11 (11738290_x_at) / Fold change /veh KRTAP10-11 (11738290_x_at) / RFU MYO3A (11730013_a_at) / Fold change /veh MYO3A (11730013_a_at) / RFU EBF3 (11725865_a_at) / Fold change /veh EBF3 (11725865_a_at) / RFU CAMK2N1 (11719241_x_at) / Fold change /veh CAMK2N1 (11719241_x_at) / RFU C5orf56 (11738088_a_at) / Fold change /veh C5orf56 (11738088_a_at) / RFU OLFML3 (11715873_a_at) / Fold change /veh OLFML3 (11715873_a_at) / RFU LOC100653217 /// NTM (11731650_a_at) / Fold change /veh LOC100653217 /// NTM (11731650_a_at) / RFU MAPK11 (11762145_a_at) / Fold change /veh MAPK11 (11762145_a_at) / RFU FIZ1 (11724087_x_at) / Fold change /veh FIZ1 (11724087_x_at) / RFU OASL (11726364_x_at) / Fold change /veh OASL (11726364_x_at) / RFU SOX15 (11748057_x_at) / Fold change /veh SOX15 (11748057_x_at) / RFU CD79A (11719716_a_at) / Fold change /veh CD79A (11719716_a_at) / RFU HIST1H1D (11736915_at) / Fold change /veh HIST1H1D (11736915_at) / RFU CASKIN2 (11723855_a_at) / Fold change /veh CASKIN2 (11723855_a_at) / RFU LOC730098 (11760151_x_at) / Fold change /veh LOC730098 (11760151_x_at) / RFU OR4N2 (11742367_at) / Fold change /veh OR4N2 (11742367_at) / RFU PRRT2 (11749266_a_at) / Fold change /veh PRRT2 (11749266_a_at) / RFU SNX32 (11753110_a_at) / Fold change /veh SNX32 (11753110_a_at) / RFU CDHR5 (11726645_a_at) / Fold change /veh CDHR5 (11726645_a_at) / RFU RCAN1 (11760418_a_at) / Fold change /veh RCAN1 (11760418_a_at) / RFU FAM167A (11723789_a_at) / Fold change /veh FAM167A (11723789_a_at) / RFU FAM26E (11764081_at) / Fold change /veh FAM26E (11764081_at) / RFU ISYNA1 (11749810_s_at) / Fold change /veh ISYNA1 (11749810_s_at) / RFU ACY1 (11761880_at) / Fold change /veh ACY1 (11761880_at) / RFU 11764098_at / Fold change /veh 11764098_at / RFU SAMD14 (11745864_x_at) / Fold change /veh SAMD14 (11745864_x_at) / RFU NPB (11741838_a_at) / Fold change /veh NPB (11741838_a_at) / RFU TMPRSS6 (11731388_a_at) / Fold change /veh TMPRSS6 (11731388_a_at) / RFU KRTAP10-2 (11738614_at) / Fold change /veh KRTAP10-2 (11738614_at) / RFU ARHGAP8 /// PRR5-ARHGAP8 (11727945_x_at) / Fold change /veh ARHGAP8 /// PRR5-ARHGAP8 (11727945_x_at) / RFU KRTAP5-7 /// NADSYN1 (11734609_at) / Fold change /veh KRTAP5-7 /// NADSYN1 (11734609_at) / RFU RASL12 (11751679_a_at) / Fold change /veh RASL12 (11751679_a_at) / RFU CDKN2B (11736163_a_at) / Fold change /veh CDKN2B (11736163_a_at) / RFU PRF1 (11729649_at) / Fold change /veh PRF1 (11729649_at) / RFU, ZNF638 /// ZNF638-IT1 / Fold change vs veh, ZNF638 /// ZNF638-IT1 / RFU, PANK3 / Fold change vs veh, PANK3 / RFU, SH3YL1 / Fold change vs veh, SH3YL1 / RFU, ZEB2 / Fold change vs veh, ZEB2 / RFU, NRIP1 / Fold change vs veh, NRIP1 / RFU, PTTG1IP / Fold change vs veh, PTTG1IP / RFU, CAPN2 / Fold change vs veh, CAPN2 / RFU, MED14 / Fold change vs veh, MED14 / RFU, SNORA58 / Fold change vs veh, SNORA58 / RFU, C1orf63 / Fold change vs veh, C1orf63 / RFU, LRRFIP1 / Fold change vs veh, LRRFIP1 / RFU, NDUFAF7 / Fold change vs veh, NDUFAF7 / RFU, SLC12A2 / Fold change vs veh, SLC12A2 / RFU, IBTK / Fold change vs veh, IBTK / RFU, ESF1 / Fold change vs veh, ESF1 / Fold change vs veh, TMEM50B / RFU, TAOK1 / Fold change vs veh, TAOK1 / RFU, ACBD3 / Fold change vs veh, ACBD3 / RFU, TMA16 / Fold change vs veh, TMA16 / RFU, RWDD3 / Fold change vs veh, RWDD3 / RFU, BCAT1 / Fold change vs veh, BCAT1 / RFU, EDEM3 / Fold change vs veh, EDEM3 / RFU, TMEM33 / Fold change vs veh, TMEM33 / RFU, WDR75 / Fold change vs veh, WDR75 / RFU, AHCTF1 / Fold change vs veh, AHCTF1 / RFU, TFRC / Fold change vs veh, TFRC / RFU, ZDHHC17 / Fold change vs veh, ZDHHC17 / RFU, NOM1 / Fold change vs veh, NOM1 / RFU, ARL8B / Fold change vs veh, ARL8B / RFU, ZBTB11 / Fold change vs veh, ZBTB11 / RFU, TAMM41 / Fold change vs veh, TAMM41 / RFU, KIAA1704 /// LOC100996395 / Fold change vs veh, KIAA1704 /// LOC100996395 / RFU, ING1 / Fold change vs veh, ING1 / RFU, TRMT61B / Fold change vs veh, TRMT61B / RFU, FUBP3 / Fold change vs veh, FUBP3 / RFU, TP53 / Fold change vs veh, TP53 / RFU, TNKS2 / Fold change vs veh, TNKS2 / RFU, ZFP14 / Fold change vs veh, ZFP14 / RFU, ACTR2 / Fold change vs veh, ACTR2 / RFU, PPP3R1 / Fold change vs veh, PPP3R1 / RFU, PIK3R1 / Fold change vs veh, PIK3R1 / RFU, HNRNPA1 / Fold change vs veh, HNRNPA1 / RFU, RNF170 / Fold change vs veh, RNF170 / RFU, ZNF28 / Fold change vs veh, ZNF28 / RFU, RNGTT / Fold change vs veh, RNGTT / RFU, OGT / Fold change vs veh, OGT / RFU, BRD1 / Fold change vs veh, BRD1 / RFU, MARS / Fold change vs veh, MARS / RFU, ZNF655 / Fold change vs veh, ZNF655 / RFU, FAHD1 / Fold change vs veh, FAHD1 / RFU, BDP1 / Fold change vs veh, BDP1 / RFU, LRRCC1 / Fold change vs veh, LRRCC1 / RFU, ARID1A / Fold change vs veh, ARID1A / RFU, ZNF146 / Fold change vs veh, ZNF146 / RFU, ZNF330 / Fold change vs veh, ZNF330 / RFU, GPN3 / Fold change vs veh, GPN3 / RFU, C9orf123 / Fold change vs veh, C9orf123 / RFU, N4BP2L2 / Fold change vs veh, N4BP2L2 / RFU, ARFIP1 / Fold change vs veh, ARFIP1 / RFU, FAM179B / Fold change vs veh, FAM179B / RFU, BCL10 / Fold change vs veh, BCL10 / RFU, UHRF1BP1L / Fold change vs veh, UHRF1BP1L / RFU, BET1 / Fold change vs veh, BET1 / RFU, CNOT2 / Fold change vs veh, CNOT2 / RFU, ZNF268 / Fold change vs veh, ZNF268 / Fold change vs veh, ZNF507 / RFU, DGCR2 / Fold change vs veh, DGCR2 / RFU, WDSUB1 / Fold change vs veh, WDSUB1 / Fold change vs veh, HSP90B1 /// MIR3652 / RFU, ADSS / Fold change vs veh, ADSS / RFU, GK / Fold change vs veh, GK / RFU, ZNF148 / Fold change vs veh, ZNF148 / RFU, TAF9 / Fold change vs veh, TAF9 / RFU, SLC1A5 / Fold change vs veh, SLC1A5 / RFU, SLMO2 / Fold change vs veh, SLMO2 / RFU, ABCC4 / Fold change vs veh, ABCC4 / RFU, LOC101060439 /// RAP1B / Fold change vs veh, LOC101060439 /// RAP1B / RFU, RFX7 / Fold change vs veh, RFX7 / RFU, GTPBP10 / Fold change vs veh, GTPBP10 / RFU, CNEP1R1 / Fold change vs veh, CNEP1R1 / RFU, BIVM-ERCC5 /// ERCC5 / Fold change vs veh, BIVM-ERCC5 /// ERCC5 / RFU, ILF3 / Fold change vs veh, ILF3 / RFU 11762660_at / Fold change /veh 11762660_at / RFU VCAN (11757783_s_at) / Fold change /veh VCAN (11757783_s_at) / RFU DDX43 (11728927_at) / Fold change /veh DDX43 (11728927_at) / RFU KRT8 (11758188_x_at) / Fold change /veh KRT8 (11758188_x_at) / RFU NKD1 (11759106_at) / Fold change /veh NKD1 (11759106_at) / RFU SRD5A1 (11742802_a_at) / Fold change /veh SRD5A1 (11742802_a_at) / RFU TPSAB1 /// TPSB2 (11721975_s_at) / Fold change /veh TPSAB1 /// TPSB2 (11721975_s_at) / RFU GSTM3 (11746129_a_at) / Fold change /veh GSTM3 (11746129_a_at) / RFU IL23R (11737362_x_at) / Fold change /veh IL23R (11737362_x_at) / RFU TMEM51 (11727254_a_at) / Fold change /veh TMEM51 (11727254_a_at) / RFU PIWIL2 (11732686_x_at) / Fold change /veh PIWIL2 (11732686_x_at) / RFU ORM1 (11744905_x_at) / Fold change /veh ORM1 (11744905_x_at) / RFU CCDC152 (11743942_at) / Fold change /veh CCDC152 (11743942_at) / RFU ECM1 (11717891_a_at) / Fold change /veh ECM1 (11717891_a_at) / RFU IL23R (11748794_a_at) / Fold change /veh IL23R (11748794_a_at) / RFU TNFAIP8L3 (11732012_x_at) / Fold change /veh TNFAIP8L3 (11732012_x_at) / RFU MBOAT4 (11741988_at) / Fold change /veh MBOAT4 (11741988_at) / RFU 11764193_at / Fold change /veh 11764193_at / RFU TMEM53 (11763286_at) / Fold change /veh TMEM53 (11763286_at) / RFU MAGEB2 (11727129_at) / Fold change /veh MAGEB2 (11727129_at) / RFU TMEM200A (11744735_a_at) / Fold change /veh TMEM200A (11744735_a_at) / RFU CCDC152 (11751479_a_at) / Fold change /veh CCDC152 (11751479_a_at) / RFU FAM211A (11726209_a_at) / Fold change /veh FAM211A (11726209_a_at) / RFU RGS16 (11746705_a_at) / Fold change /veh RGS16 (11746705_a_at) / RFU VCAN (11755009_s_at) / Fold change /veh VCAN (11755009_s_at) / RFU RHOB (11743442_s_at) / Fold change /veh RHOB (11743442_s_at) / RFU RGS16 (11720943_a_at) / Fold change /veh RGS16 (11720943_a_at) / RFU RGS16 (11720944_at) / Fold change /veh RGS16 (11720944_at) / RFU, VPS4B / Fold change vs veh, VPS4B / RFU, CREB1 / Fold change vs veh, CREB1 / RFU, DNAJC13 / Fold change vs veh, DNAJC13 / RFU, GNAQ / Fold change vs veh, GNAQ / RFU, CDK5R1 / Fold change vs veh, CDK5R1 / RFU, ZRANB3 / Fold change vs veh, ZRANB3 / RFU, CUL4A / Fold change vs veh, CUL4A / RFU, CCNY / Fold change vs veh, CCNY / RFU, UFL1 / Fold change vs veh, UFL1 / RFU, COG3 / Fold change vs veh, COG3 / RFU, DIAPH2 / Fold change vs veh, DIAPH2 / RFU, SKA2 / Fold change vs veh, SKA2 / RFU, AFF3 / Fold change vs veh, AFF3 / RFU, LMF1 / Fold change vs veh, LMF1 / RFU, IPO11 / Fold change vs veh, IPO11 / RFU, DFFB / Fold change vs veh, DFFB / RFU, FOXP1 / Fold change vs veh, FOXP1 / RFU, CARD8 / Fold change vs veh, CARD8 / RFU, STRN3 / Fold change vs veh, STRN3 / RFU, ADK / Fold change vs veh, ADK / RFU, RASSF2 / Fold change vs veh, RASSF2 / RFU, WIPF1 / Fold change vs veh, WIPF1 / RFU, LARP1B / Fold change vs veh, LARP1B / RFU, RASA1 / Fold change vs veh, RASA1 / RFU, RB1 / Fold change vs veh, RB1 / RFU, PPFIA1 / Fold change vs veh, PPFIA1 / RFU, MAT2A / Fold change vs veh, MAT2A / RFU, CCT5 / Fold change vs veh, CCT5 / RFU, WDR92 / Fold change vs veh, WDR92 / RFU, CUX1 / Fold change vs veh, CUX1 / RFU, TTC7A / Fold change vs veh, TTC7A / RFU, TMEM135 / Fold change vs veh, TMEM135 / RFU, DEPTOR / Fold change vs veh, DEPTOR / RFU, CPM / Fold change vs veh, CPM / RFU, DNAJB6 / Fold change vs veh, DNAJB6 / RFU, CACNA2D3 / Fold change vs veh, CACNA2D3 / RFU, DTX4 / Fold change vs veh, DTX4 / RFU, TFCP2 / Fold change vs veh, TFCP2 / RFU, GMCL1 /// GMCL1P1 / Fold change vs veh, GMCL1 /// GMCL1P1 / RFU, AEBP2 / Fold change vs veh, AEBP2 / RFU, SNHG1 /// SNORD22 /// SNORD25 /// SNORD26 /// SNORD27 /// SNORD28 /// SNORD29 /// SNORD31 / Fold change vs veh, SNHG1 /// SNORD22 /// SNORD25 /// SNORD26 /// SNORD27 /// SNORD28 /// SNORD29 /// SNORD31 / Fold change (Aza/veh), C12orf56 (ProbeSet 11735607_a_at) / Fold change (ACY-1035/veh), C12orf56 (ProbeSet 11735607_a_at) / Fold change (Aza/veh), FGFR1OP (ProbeSet 11751329_s_at) / Fold change (ACY-1035/veh), FGFR1OP (ProbeSet 11751329_s_at) / Fold change (Aza/veh), VPS36 (ProbeSet 11739960_a_at) / Fold change (ACY-1035/veh), VPS36 (ProbeSet 11739960_a_at) / RFU SYPL1 (11715823_x_at) / Fold change /veh SYPL1 (11715823_x_at) / RFU IGFBP7 (11715501_s_at) / Fold change /veh IGFBP7 (11715501_s_at) / RFU REEP3 (11722064_at) / Fold change /veh REEP3 (11722064_at) / RFU IGLL1 (11728026_x_at) / Fold change /veh IGLL1 (11728026_x_at): dose or concentration left out as unconfirmed
Conditions: MV-4-11 cells, 48 hours

Nc1ncn([C@@H]2O[C@H](CO)[C@@H](O)[C@H]2O)c(=O)n1 [azacitidine]
Fold change /veh CDHR5 (11726645_a_at): 1.19
